This passage reports Activity and IC50 results from ChEMBL document CHEMBL5360594, “Astellolides R-W, Drimane-Type Sesquiterpenoids from an Aspergillus parasiticus Strain Associated with an Isopod” (J Nat Prod, 2023).

For data set [1], the system named is A549. The data set can be described thus: Cytotoxicity against human A549 cells assessed as inhibition of cell growth at 20 uM incubated for 48 hrs by MTT assay. The conditions noted are these: a549, 48 h. The format is toxicity, cell-based.
In data set [2] the test system is MCF7. Put plainly: Cytotoxicity against human MCF7 cells assessed as inhibition of cell growth at 20 uM incubated for 48 hrs by MTT assay. Type of data set: toxicity, cell-based. The conditions noted are these: mcf7, 48 h.
In data set [3] the test system is HCT-116. The data set can be described thus: Cytotoxicity against human HCT-116 cells assessed as inhibition of cell growth at 20 uM incubated for 48 hrs by MTT assay. The conditions noted are these: hct-116, 48 h. Type of data set: toxicity, cell-based.
Data set [4] deals with HepG2. The data set can be described thus: Cytotoxicity against human HepG2 cells assessed as inhibition of cell growth at 20 uM incubated for 48 hrs by MTT assay. The format is toxicity, cell-based. Particulars: hepg2, 48 h.
Data set [5] has as its system HeLa. The data set can be described thus: Cytotoxicity against human HeLa cells assessed as inhibition of cell growth at 20 uM incubated for 48 hrs by MTT assay. The format is toxicity, cell-based.
In data set [6] the test system is K562. Put plainly: Cytotoxicity against human K562 cells assessed as inhibition of cell growth at 20 uM incubated for 48 hrs by MTT assay. The format is toxicity, cell-based. The conditions noted are these: k562, 48 h.
Data set [7] concerns MKN-45. Put plainly: Cytotoxicity against human MKN-45 cells assessed as inhibition of cell growth at 20 uM incubated for 48 hrs by MTT assay. The format is toxicity, cell-based. Particulars: mkn-45, 48 h.
The test system of data set [8] is CAL-62. The data set can be described thus: Cytotoxicity against human CAL-62 cells assessed as inhibition of cell growth at 20 uM incubated for 48 hrs by MTT assay. The format is toxicity, cell-based. The conditions noted are these: cal-62, 48 h.
The test system of data set [9] is 5637. Put plainly: Cytotoxicity against human 5637 cells assessed as inhibition of cell growth at 20 uM incubated for 48 hrs by MTT assay. Type of data set: toxicity, cell-based. Particulars: human, 5637, 48 h.
The test system of data set [10] is RAW264.7. Put plainly: Cytotoxicity against mouse RAW264.7 cells assessed as inhibition of cell growth at 30 uM. Particulars: raw264.7, 30 µM. The format is toxicity, cell-based.
For data set [11], the system named is RAW264.7. Put plainly: Antiinflammatory activity in mouse RAW264.7 cells assessed as inhibition of LPS-induced NO production preincubated with compound for 30 mins followed by LPS-stimulation and measured after 24 hrs by Griess assay. The format is functional, cell-based.

Take `CC(=O)OC[C@@]1(C)CCC[C@]2(COC(C)=O)C3=C(C[C@@H](OC(=O)c4cccnc4)[C@@H]12)C(=O)OC3`: the Activity result in data set [1], in data set [2], in [3], in data set [4], in data set [5] and in [6] was “Non-Toxic” each time. For the same molecule, the Activity result in data set [7], in data set [8], in data set [9] and in data set [10] was “Non-Toxic” in each case. Moreover, in data set [11], the IC50 stood at 19 µM.

On to `CC12CCCC34C5=C(CC(O[C@@H]3OC1)C24)C(=O)OC5`, for which the Activity entry in [1], in data set [2], in [3], in [4], in data set [5] and in [6] was “Non-Toxic” in each case. Moreover, the Activity result in [7], in [8], in data set [9] and in [10] was “Non-Toxic” in each case. In addition, the concentration for half-maximal inhibition (IC50) in data set [11] was 22 µM.

`C[C@]1(CO)CCC[C@]2(CO)C3=C(CC[C@@H]12)C(=O)OC3`: the Activity result in data set [1], in data set [2], in [3], in data set [4], in data set [5] and in [6] was “Non-Toxic” in each case. Moreover, the Activity result in data set [7], in data set [8], in data set [9] and in data set [10] was “Non-Toxic” in each case. For the same molecule, the 50% inhibitory concentration (IC50) in data set [11] stood at 21 µM.

For `C[C@]1(CO)CC[C@@H](O)[C@]2(C)C3=C(CC[C@@H]12)C(=O)OC3`, the Activity result in data set [1], in data set [2], in [3], in data set [4], in data set [5] and in data set [6] was “Non-Toxic” each time. The Activity entry in data set [7], in data set [8], in data set [9] and in data set [10] was “Non-Toxic” each time. Also, the 50% inhibitory concentration (IC50) in data set [11] came to 6.1 µM.

In the case of `C[C@@H]1C[C@H]2[C@@H]3CCC4=CC(=O)C=C[C@]4(C)[C@@]3(F)[C@@H](O)C[C@]2(C)[C@@]1(O)C(=O)CO` [DEXAMETHASONE], the IC50 in data set [11] came out at 2.6 µM.

For `CC(=O)OC[C@]12CCCC(C)(C)[C@@H]1[C@H](OC(=O)c1ccccc1)CC1=C2COC1=O`, the Activity entry in data set [1], in [2], in data set [3], in data set [4], in data set [5] and in [6] was “Non-Toxic” throughout. The Activity entry in data set [7], in data set [8], in data set [9] and in data set [10] was “Non-Toxic” in each case. In addition, in data set [11], the IC50 turned out to be 6.8 µM.
